From patent US20260365682A1, “MODULATORS OF TNF-ALPHA ACTIVITY” (Forward Therapeutics, Inc., priority 2022, published 2026) come the findings set out here.

This test deals with T1, TNF-α (Homo sapiens, UniProt P01375).
T1 construct: purchased R&D 210-TA-020/CF
Briefly: TNF-α Induced HEK Blue Cellular Assay (secreted alkaline phosphatase expression, QUANTI-Blue). It is filed as cell-based. To be noted: HEK Blue TNFα reporter cells; TNF-α 100 μg/ml; 24 hrs at 37° C.; inhibition of secreted alkaline phosphatase; read-out: IC50 value. The method, then:
TNF-α Induced HEK Blue Cellular Assay
Test articles were diluted in DMSO and serially diluted into 384 well assay plate (Corning 3765), at final concentrations ranging from […] to 0.5 nM. HEK Blue™ TNFα reporter cells were added at a final density of 10,000 cell per well in assay media [DMEM (Gibco, cat #21063-029), 10% fetal bovine serum (ExcelBio, cat #FND500), 1% Penicillin-Streptomycin (Solarbio, cat #P1400-100]. TNF-α (R&D 210-TA-020/CF) was then added to the assay plate at a final concentration of […]. This plate was then incubated for 24 hrs at 37° C. and 5% CO2. Secreted alkaline phosphatase expression was then measured using QUANTI-Blue™ (Invivogen), according to manufacturer instructions and read on an Envision microplate reader at 620 nm.
Inhibition data for test compound over a range of concentration was plotted as percentage inhibition of the test compound (100%=maximum inhibition). IC50 values were determined after correcting for background [(sample read-mean of low control)/(mean of high control-mean of low control)] whereby the low control is DMSO without stimulation and high control is DMSO with stimulation. The IC50 is defined as the concentration of test compound which produces 50% inhibition and was quantified using the 4 parameter logistic equation to fit the data.

Molecules are shown by their SMILES. pIC50: −log10 of the molar value.

T1 sequence (P01375 77-233 limits assumed): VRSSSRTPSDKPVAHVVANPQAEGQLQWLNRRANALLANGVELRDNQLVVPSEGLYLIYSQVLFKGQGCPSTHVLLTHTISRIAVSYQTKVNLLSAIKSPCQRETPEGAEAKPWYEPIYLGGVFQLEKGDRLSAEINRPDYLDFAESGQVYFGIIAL

Broadly, the pIC50 is the IC50 on a negative log10 scale, so that one unit is a factor of ten. For `[2H]C([2H])([2H])N1C(=O)c2cccc(OC(F)F)c2[C@H]2C[C@@H]1c1nc3ccc(C#CCCC4CC4)cc3n12` (single isomer, unassigned) [Example 137], the negative-log IC50 (pIC50) was greater than 7.00.

In the case of `[2H]C([2H])([2H])N1C(=O)c2cccc(OC(F)F)c2[C@H]2C[C@@H]1c1nc3ccc(C#CCC(C)O)cc3n12` (single isomer, unassigned) [Example 139, (7R,14R)-1-(difluoromethoxy)-11-((R or S)-4-hydroxypent-1-yn-1-yl)-6-(methyl-d3)-6,7-dihydro-7,14-methanobenzo[f]benzo[4,5]imidazo[1,2-a][1,4]diazocin-5(14H)-one], the pIC50 is greater than 7.00.

In the case of `[2H]C([2H])([2H])N1C(=O)c2cccc(OC(F)F)c2[C@H]2C[C@@H]1c1nc3ccc(C#CCC(C)O)cc3n12` (single isomer, unassigned) [Example 140, (7R,14R)-1-(difluoromethoxy)-11-((S or R)-4-hydroxypent-1-yn-1-yl)-6-(methyl-d3)-6,7-dihydro-7,14-methanobenzo[f]benzo[4,5]imidazo[1,2-a][1,4]diazocin-5(14H)-one], the pIC50 was greater than 7.00.

For `[2H]C([2H])([2H])N1C(=O)c2cccc(OC(F)F)c2[C@H]2C[C@@H]1c1nc3ccc(C#CCC(C)OC)cc3n12` (single isomer, unassigned) [Example 148, (7R,14R)-1-(difluoromethoxy)-11-((R or S)-4-methoxypent-1-yn-1-yl)-6-(methyl-d3)-6,7-dihydro-7,14-methanobenzo[f]benzo[4,5]imidazo[1,2-a][1,4]diazocin-5(14H)-one], the pIC50 was greater than 7.00.

Turning to `[2H]C([2H])([2H])N1C(=O)c2cccc(OC(F)F)c2[C@H]2C[C@@H]1c1nc3ccc(C#CCC(C)OC)cc3n12` (single isomer, unassigned) [Example 149, (7R,14R)-1-(difluoromethoxy)-11-((S or R)-4-methoxypent-1-yn-1-yl)-6-(methyl-d3)-6,7-dihydro-7,14-methanobenzo[f]benzo[4,5]imidazo[1,2-a][1,4]diazocin-5(14H)-one], the negative-log IC50 (pIC50) was greater than 7.00.

As for `[2H]C([2H])([2H])N1C(=O)c2cccc(OC(F)F)c2[C@H]2C[C@@H]1c1nc3ccc(C#CC(O)C(F)(F)F)cc3n12` (single isomer, unassigned) [Example 199, (7R,14R)-1-(difluoromethoxy)-6-(methyl-d3)-11-((R or S)-4,4,4-trifluoro-3-hydroxybut-1-yn-1-yl)-6,7-dihydro-7,14-methanobenzo[f]benzo[4,5]imidazo[1,2-a][1,4]diazocin-5(14H)-one], the pIC50 was 6.00 to 7.00.

As to `[2H]C([2H])([2H])N1C(=O)c2cccc(OC(F)F)c2[C@H]2C[C@@H]1c1nc3ccc(C#CC(O)C(F)(F)F)cc3n12` (single isomer, unassigned) [Example 200, (7R,14R)-1-(difluoromethoxy)-6-(methyl-d3)-11-((S or R)-4,4,4-trifluoro-3-hydroxybut-1-yn-1-yl)-6,7-dihydro-7,14-methanobenzo[f]benzo[4,5]imidazo[1,2-a][1,4]diazocin-5(14H)-one], the pIC50 was 6.00 to 7.00.

For the compound `[2H]C([2H])([2H])N1C(=O)c2cccc(OC(F)F)c2[C@H]2C[C@@H]1c1nc3ccc(C#CC(O)CC)cc3n12` (single isomer, unassigned) [Example 208, (7R,14R)-1-(difluoromethoxy)-11-((R or S)-3-hydroxypent-1-yn-1-yl)-6-(methyl-d3)-6,7-dihydro-7,14-methanobenzo[f]benzo[4,5]imidazo[1,2-a][1,4]diazocin-5(14H)-one], the negative logarithm of the IC50 (pIC50) was 4.52 to 5.00.

As for `[2H]C([2H])([2H])N1C(=O)c2cccc(OC(F)F)c2[C@H]2C[C@@H]1c1nc3ccc(C#CC(O)CC)cc3n12` (single isomer, unassigned) [Example 209, (7R,14R)-1-(difluoromethoxy)-11-((S or R)-3-hydroxypent-1-yn-1-yl)-6-(methyl-d3)-6,7-dihydro-7,14-methanobenzo[f]benzo[4,5]imidazo[1,2-a][1,4]diazocin-5(14H)-one], the negative-log IC50 (pIC50) is 4.52 to 5.00.

As to `[2H]C([2H])([2H])N1C(=O)c2cccc(OC(F)F)c2[C@H]2C[C@@H]1c1nc3ccc(C#CC(N)CC(C)(C)O)cc3n12` (single isomer, unassigned) [Example 216, (7R,14R)-11-((S or R)-3-amino-5-hydroxy-5-methylhex-1-yn-1-yl)-1-(difluoromethoxy)-6-(methyl-d3)-6,7-dihydro-7,14-methanobenzo[f]benzo[4,5]imidazo[1,2-a][1,4]diazocin-5(14H)-one], the pIC50 is 4.52 to 5.00.

For the compound `[2H]C([2H])([2H])N1C(=O)c2cccc(OC(F)F)c2[C@H]2C[C@@H]1c1nc3ccc(C#CC(N)CC(C)(C)O)cc3n12` (single isomer, unassigned) [Example 217, (7R,14R)-11-((R or S)-3-amino-5-hydroxy-5-methylhex-1-yn-1-yl)-1-(difluoromethoxy)-6-(methyl-d3)-6,7-dihydro-7,14-methanobenzo[f]benzo[4,5]imidazo[1,2-a][1,4]diazocin-5(14H)-one], the pIC50 was 4.52 to 5.00.

Turning to `[2H]C([2H])([2H])N1C(=O)c2cccc(OC(F)F)c2[C@H]2C[C@@H]1c1nc3ccc(C#CC(O)CC(C)(C)O)cc3n12` (single isomer, unassigned) [Example 221, (7R,14R)-1-(difluoromethoxy)-11-((S or R)-3,5-dihydroxy-5-methylhex-1-yn-1-yl)-6-(methyl-d3)-6,7-dihydro-7,14-methanobenzo[f]benzo[4,5]imidazo[1,2-a][1,4]diazocin-5(14H)-one], the negative-log IC50 (pIC50) was 6.00 to 7.00.

Consider `[2H]C([2H])([2H])N1C(=O)c2cccc(OC(F)F)c2[C@H]2C[C@@H]1c1nc3ccc(C#CC(O)CC(C)(C)O)cc3n12` (single isomer, unassigned) [Example 222, (7R,14R)-1-(difluoromethoxy)-11-((R or S)-3,5-dihydroxy-5-methylhex-1-yn-1-yl)-6-(methyl-d3)-6,7-dihydro-7,14-methanobenzo[f]benzo[4,5]imidazo[1,2-a][1,4]diazocin-5(14H)-one], for which the pIC50 is greater than 7.00.

On to `[2H]C([2H])([2H])N1C(=O)c2cccc(OC(F)F)c2[C@H]2C[C@@H]1c1nc3ccc(C#CC(C)CCO)cc3n12` (single isomer, unassigned) [Example 239, (7R,14R)-1-(difluoromethoxy)-11-((S or R)-5-hydroxy-3-methylpent-1-yn-1-yl)-6-(methyl-d3)-6,7-dihydro-7,14-methanobenzo[f]benzo[4,5]imidazo[1,2-a][1,4]diazocin-5(14H)-one], for which the pIC50 was greater than 7.00.

Consider `[2H]C([2H])([2H])N1C(=O)c2cccc(OC(F)F)c2[C@H]2C[C@@H]1c1nc3ccc(C#CC(C)CCO)cc3n12` (single isomer, unassigned) [Example 240, (7R,14R)-1-(difluoromethoxy)-11-((R or S)-5-hydroxy-3-methylpent-1-yn-1-yl)-6-(methyl-d3)-6,7-dihydro-7,14-methanobenzo[f]benzo[4,5]imidazo[1,2-a][1,4]diazocin-5(14H)-one], for which the negative logarithm of the IC50 (pIC50) was greater than 7.00.

In the case of `[2H]C([2H])([2H])N1C(=O)c2cccc(OC(F)F)c2[C@H]2C[C@@H]1c1nc3ccc(C#CCC(O)C(C)O)cc3n12` (single isomer, unassigned) [Example 243, (7R,14R)-1-(difluoromethoxy)-11-((4R or 4S,5S or 5R)-4,5-dihydroxyhex-1-yn-1-yl)-6-(methyl-d3)-6,7-dihydro-7,14-methanobenzo[f]benzo[4,5]imidazo[1,2-a][1,4]diazocin-5(14H)-one], the pIC50 is greater than 7.00.

With `[2H]C([2H])([2H])N1C(=O)c2cccc(OC(F)F)c2[C@H]2C[C@@H]1c1nc3ccc(C#CCC(O)C(C)O)cc3n12` (single isomer, unassigned) [Example 244, (7R,14R)-1-(difluoromethoxy)-11-((4S or 4S,5R or 5S)-4,5-dihydroxyhex-1-yn-1-yl)-6-(methyl-d3)-6,7-dihydro-7,14-methanobenzo[f]benzo[4,5]imidazo[1,2-a][1,4]diazocin-5(14H)-one], the pIC50 is greater than 7.00.

On to `[2H]C([2H])([2H])N1C(=O)c2cccc(OC(F)F)c2[C@H]2C[C@@H]1c1nc3ccc(C#CCC(O)C(C)O)cc3n12` (single isomer, unassigned) [Example 245, (7R,14R)-1-(difluoromethoxy)-11-((4S or 4R,5S or 5R)-4,5-dihydroxyhex-1-yn-1-yl)-6-(methyl-d3)-6,7-dihydro-7,14-methanobenzo[f]benzo[4,5]imidazo[1,2-a][1,4]diazocin-5(14H)-one], for which the pIC50 was greater than 7.00.

Take `[2H]C([2H])([2H])N1C(=O)c2cccc(OC(F)F)c2[C@H]2C[C@@H]1c1nc3ccc(C#CCC(O)C(C)O)cc3n12` (single isomer, unassigned) [Example 246, (7R,14R)-1-(difluoromethoxy)-11-((4R or 4S,5R or 5S)-4,5-dihydroxyhex-1-yn-1-yl)-6-(methyl-d3)-6,7-dihydro-7,14-methanobenzo[f]benzo[4,5]imidazo[1,2-a][1,4]diazocin-5(14H)-one]: the negative logarithm of the IC50 (pIC50) was greater than 7.00.
